We go through five compounds from patent US20080146576A1, “N-(1-Phthalazin-1-ylpiperidin-4-yl)amides as EP2 receptor modulators” (priority 2006, published 2008).

Each structure is given as a SMILES string. Like-named read-outs stand apart in the source and are kept apart here.

Experiment [1] addresses T1, human prostaglandin E2 (subtype EP2) receptor (Homo sapiens, UniProt P43116).
T1 construct: host or cells: cells on a cell culture plate
The experiment can be described thus: cAMP antagonism assay (HTRF cAMP, PGE2-stimulated cells). In kind it is cell-based. The procedure:
(§1) The binding of PGE2 to the EP2 subtype of the human PGE2 receptor induces activation of membrane-associated adenylate cyclases and leads to the formation of cAMP. In the presence of the phosphodiesterase inhibitor IBMX, cAMP which has accumulated due to this stimulation and been released by cell lysis is employed in a competitive detection method. In this assay, the cAMP in the lysate competes with cAMP-XL665 for binding of an Eu cryptate-labeled anti-cAMP antibody.
(§2) The two signals are measured in a suitable measuring instrument with a time lag, i.e. after the background fluorescence has declined.
The substance solutions (0.75 μl) containing 30% DMSO are introduced into an assay plate and dissolved in 16 μl of a KRSB+IBMX stimulation solution (1× Krebs-Ringer Bicarbonate Buffer; Sigma-Aldrich # K-4002; including 750 μM 3-isobutyl-1-methylxanthine Sigma-Aldrich # I-7018), and then 15 μl, thereof are transferred into a media-free cell culture plate which has been washed with KRSB shortly beforehand.
After preincubation at room temperature (RT) for 30 minutes, 5 μl of a 4×PGE2 solution (11 nM) are added, and incubation is carried out in the presence of the agonist at RT for a further 60 min (volume: ˜20 μl) before the reaction is then stopped by adding 5 μl of lysis buffer and incubated at RT for a further 20 min (volume: ˜25 μl). The cell lysate is then transferred into a measuring plate and measured in accordance with the manufacturer's information (cyclic AMP kit Cisbio International #62AMPPEC).

Experiment [2] deals with T1, human prostaglandin E2 (subtype EP2) receptor. The experiment can be described thus: cAMP agonism assay (HTRF cAMP). The format is cell-based. As to the method:
as §1, §2
The substance solutions (0.75 μl) containing 30% DMSO are introduced into an assay plate and dissolved in 16 μl of a KRSB+IBMX stimulation solution (1× Krebs-Ringer Bicarbonate Buffer; Sigma-Aldrich # K-4002; including 750 μM 3-isobutyl-1-methylxanthine Sigma-Aldrich # I-7018), and then 15 μl thereof are transferred into a media-free cell culture plate which has been washed with KRSB shortly beforehand.
After incubation at room temperature (RT; volume: ˜15 μl) for 60 minutes, the reaction is then stopped by adding 5 μl of lysis buffer and incubated at RT for a further 20 min (volume: ˜20 μl). The cell lysate is then transferred into a measuring plate and measured in accordance with the manufacturer's information (cyclic AMP kit Cisbio International #62AMPPEC).

The test system of the next experiment is cumulus-oocyte complexes. In words: Cumulus expansion assay in vitro. The format is cell-based, mice. Particulars: competing with PGE2. As to the method:
Folliculogenesis is induced in immature female mice (strain: CD1 (ICR) from Charles River) at an age of 14-18 days by a single dose (intraperitoneally) of 10 I.U. of PMSG (Pregnant Mare Serum Gonadotropin; Sigma G-4877, Batch 68H0909). 47-50 hours after the injection, the ovaries are removed and the cumulus-oocyte complexes are removed. The cumulus complex is not yet expanded at this stage.
The cumulus-oocyte complexes are then incubated with prostaglandin E2 (PGE2) (1 μM), vehicle control (ethanol) or test substances for 20-24 hours. Medium: alpha-MEM medium with 0.1 mM IBMX, pyruvates (0.23 mM), glutamines (2 mM), pen/strep (100 IU/ml pen. and 100 μg/ml strep.) and HSA (8 mg/ml). Cumulus expansion is then established through the division into four stages (according to Vanderhyden et al. Dev Biol. 1990 August; 140(2):307-317).

Setting [3] is: cAMP assay in presence of PGE2, read-out: Antagonism [IC50.
[4] abbreviates: cAMP assay, no PGE2 added, read-out: Agonism [ED50.

T1 sequence (P43116 whole entry): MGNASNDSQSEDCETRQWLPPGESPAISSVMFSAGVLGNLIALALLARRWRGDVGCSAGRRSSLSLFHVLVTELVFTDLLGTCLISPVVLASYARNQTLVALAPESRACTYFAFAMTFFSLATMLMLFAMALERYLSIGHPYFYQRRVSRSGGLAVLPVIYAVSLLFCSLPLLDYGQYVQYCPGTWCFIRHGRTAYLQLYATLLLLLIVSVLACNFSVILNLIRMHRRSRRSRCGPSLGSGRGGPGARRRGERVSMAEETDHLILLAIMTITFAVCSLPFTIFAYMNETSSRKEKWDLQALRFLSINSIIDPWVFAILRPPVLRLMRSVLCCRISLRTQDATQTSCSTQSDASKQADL

In the case of `Cc1nnc(N2CCC(NC(=O)c3cccc(Cl)c3Cl)CC2)c2ccc(Br)cc12` [Example 4, N-[1-(6-Bromo-4-methyl-phthalazin-1-yl)-piperidin-4-yl]-2,3-dichloro-benzamide], in experiment [1] (setting [3]), the 50% inhibitory concentration (IC50) was 500 nM. Also, the EC50 in experiment [2] (setting [4]) is over 19 µM.

As to `Cc1nnc(N2CCC(NC(=O)c3cccc(Cl)c3Cl)CC2)c2cc(Br)ccc12` [Example 3, N-[1-(7-Bromo-4-methyl-phthalazin-1-yl)-piperidin-4-yl]-2,3-dichloro-benzamide], the IC50 in experiment [1] (setting [3]) is 700 nM. Further, the EC50 in experiment [2] (setting [4]) is over 19 µM.

Regarding `CC(C)Oc1ccc2c(=O)c3cc(C(=O)O)ccc3oc2c1` [AH 6809, reference compound], the “suppression of cumulus expansion” value with cumulus-oocyte complexes (at a concentration of 100-200 μM) was “about 20%”.

Regarding `O=C(NC1CCN(c2nncc3cc(Br)ccc23)CC1)c1cccc(Cl)c1Cl` [Example 2, N-[1-(6-Bromo-phthalazin-1-yl)-piperidin-4-yl]-2,3-dichloro-benzamide], the IC50 in experiment [1] (read-out: IC50 in the antagonism test) was determined as 200 nM. For the same compound, the EC50 in experiment [2] (setting [4]) and in experiment [2] (read-out: EC50 in the cellular agonism test) was over 19 µM in each case. In addition, in the experiment with cumulus-oocyte complexes (at one tenth of the concentration (of 100-200 μM)), the “suppression of cumulus expansion” value is recorded as 35%.

Regarding `O=C(NC1CCN(c2nncc3ccc(Br)cc23)CC1)c1cccc(Cl)c1Cl` [Example 1, N-[1-(7-Bromo-phthalazin-1-yl)-piperidin-4-yl]-2,3-dichloro-benzamide], in experiment [1] (setting [3]), the half-maximal inhibitory concentration (IC50) is 300 nM. In experiment [2] (setting [4]), the EC50 is over 19 µM.
